According to patent publication US20080070980A1, “Use Of Beta-Cryptoxanthin” (priority 2004, published 2008):

What was measured:
[1] = test system: mouse myoblast cell line C2C12; experiment: protein formation in C2C12 muscle cell cultures (BCA protein assay, Pico-green DNA assay); type: cell-based
Procedure: β-Cyptoxanthin enhances protein formation in muscle cell cultures
C2C12 cells from American Type Culture Collection (ATCC, CRL-1772).
The mouse myoblast cell line C2C12 was seeded into 6 cm^2 cell culture dishes at a density 2×10^5 cells/per well. Cells were cultivated in the presence of Dulbecco's […] (DMEM) containing a final concentration of 10% fetal calf serum, 4500 mg/L glucose, 100 IU/ml Penicillin & 100 μg/ml Streptomycin 2 mM L-Glutamine and 1 mM sodium pyruvate. One day post seeding, cells were supplemented with fresh medium containing β-cryptoxanthin with a final concentration of 0.25 μM or 1 μM or vehicle (tetrahydrofurane). β-cryptoxanthin stock solution was prepared in tetrahydrofurane and the solvent concentration in the media was kept constant at 0.14% for all treatment conditions. Cultivation in medium containing β-cryptoxanthin followed up for a total of 7 consecutive days. The medium was changed every second day. On each day, cells from one well per treatment group were scraped into 0.4 ml of a lysis buffer consisting of 20 mM Tris pH 7.5, NaCl 150 mM, EDTA 1 mM, Nonidet 1%, proteinase inhibitors (Roche Molecular Systems, Mannheim Germany) and sonicated.
Aliquots of 10 μl of this solution were used for total protein, and 2 μl for total DNA analysis. After centrifugation for 5 min at 10000 g, supernatants were used for protein and DNA analysis in the soluble fraction.
Protein was determined using the BCA Protein Assay Reagent (Pierce, Rockford, USA). The Pico-green Assay (Molecular Probes, Leiden, The Netherlands) was used for analysis of DNA content.
The amount of protein was calculated as μg/well or in relation to the amount of cells present in the well, as indirectly determined by the amount of DNA/well.

[2] = test system: genes involved in protein synthesis; experiment: six weeks feeding study in SKH-1 mice, gene expression by GeneChip DNA microarray in kidney, liver, skin and spleen; type: in vivo; details: 1200 ppm in feed with sodium cholate
Procedure: In a six weeks study, β-cryptoxanthin beadlets were mixed into the diet of SKH-1 mice to provide 1200 ppm β-cryptoxanthin in the feed. Further, 0.125 g of sodium cholate per 100 g of feed was added to facilitate the uptake of β-cryptoxanthin. The average β-cryptoxanthin intake was 6.5 mg pro mouse and pro day. After six weeks, the effect of this dose on the overall gene expression was studied. β-cryptoxanthin-mediated gene expression modifications were assessed by GeneChip® DNA microarray technology. Total RNA was extracted from kidney, liver, skin and spleen using the TRIzol® method according to the manufacturer protocol. Reverse Transcription was performed with 10 μg total RNA followed by second strand synthesis of cDNA. The cDNA was then transcribed into multiple cRNA copies and labelled by biotin-coupled nucleotides and fragmented. 10 μg of labelled and fragmented cRNA were hybridized on Affymetrix Mice Genome 430A microarrays as described in the GeneChip® Expression Analysis Technical Manual (Affymetrix, Oxford, UK). For each β-cryptoxanthin-treated tissue, five replicates were performed and compared to six replicates of untreated control mice. […] Subsequently, the microarrays were subjected to laser scanning and the hybridization signals were analyzed with Genedata Expressionist® and Phylosopher® software packages (Genedata, Basel, Switzerland). […]

[3] = 0.25 μM, 1 day in culture, C2C12
[4] = 0.25 μM, 2 days in culture, C2C12
[5] = 0.25 μM, 3 days in culture, C2C12
[6] = 0.25 μM, 4 days in culture, C2C12
[7] = 0.25 μM, 5 days in culture, C2C12
[8] = 0.25 μM, 6 days in culture, C2C12
[9] = 0.25 μM, 7 days in culture, C2C12

Structure (SMILES): CC1=C(/C=C/C(C)=C/C=C/C(C)=C/C=C/C=C(C)/C=C/C=C(C)/C=C/C2=C(C)C[C@@H](O)CC2(C)C)C(C)(C)CCC1 [β-cryptoxanthin]
- soluble protein μg/well [1, 3]: 536 μg/well
- total protein μg/well [1, 3]: 703.6 μg/well
- μg soluble protein/μg DNA [1, 3]: 227 μg soluble protein/μg DNA
- soluble protein μg/well [1, 4]: 592 μg/well
- total protein μg/well [1, 4]: 753.6 μg/well
- μg soluble protein/μg DNA [1, 4]: 244 μg soluble protein/μg DNA
- soluble protein μg/well [1, 5]: 626 μg/well
- total protein μg/well [1, 5]: 771.2 μg/well
- μg soluble protein/μg DNA [1, 5]: 274 μg soluble protein/μg DNA
- soluble protein μg/well [1, 6]: 915 μg/well
- total protein μg/well [1, 6]: 1136 μg/well
- μg soluble protein/μg DNA [1, 6]: 406 μg soluble protein/μg DNA
- soluble protein μg/well [1, 7]: 1091 μg/well
- total protein μg/well [1, 7]: 1314.4 μg/well
- μg soluble protein/μg DNA [1, 7]: 505 μg soluble protein/μg DNA
- soluble protein μg/well [1, 8]: 1267 μg/well
- total protein μg/well [1, 8]: 1411.2 μg/well
- μg soluble protein/μg DNA [1, 8]: 713 μg soluble protein/μg DNA
- soluble protein μg/well [1, 9]: 1284 μg/well
- total protein μg/well [1, 9]: 1257.2 μg/well
- μg soluble protein/μg DNA [1, 9]: 693 μg soluble protein/μg DNA
- change in soluble protein ([1]; 0.25 μM, C2C12 (Table 3)): an increase in soluble protein
- change in specific amount of protein/μg DNA ([1]; 0.25 μM, C2C12 (Table 4)): an increase in the specific amount of protein/μg DNA
- increase in total protein ([1]; 0.25 μM, C2C12, versus vehicle (Table 2)): approx. 1.4 fold
- soluble protein μg/well ([1]; 1 μM, 1 day in culture, C2C12): 574 μg/well
- total protein μg/well ([1]; 1 μM, 1 day in culture, C2C12): 750 μg/well
- μg soluble protein/μg DNA ([1]; 1 μM, 1 day in culture, C2C12): 246 μg soluble protein/μg DNA
- soluble protein μg/well ([1]; 1 μM, 2 days in culture, C2C12): 547 μg/well
- total protein μg/well ([1]; 1 μM, 2 days in culture, C2C12): 757.2 μg/well
- μg soluble protein/μg DNA ([1]; 1 μM, 2 days in culture, C2C12): 231 μg soluble protein/μg DNA
- soluble protein μg/well ([1]; 1 μM, 3 days in culture, C2C12): 609 μg/well
- total protein μg/well ([1]; 1 μM, 3 days in culture, C2C12): 750 μg/well
- μg soluble protein/μg DNA ([1]; 1 μM, 3 days in culture, C2C12): 265 μg soluble protein/μg DNA
- soluble protein μg/well ([1]; 1 μM, 4 days in culture, C2C12): 857 μg/well
- μg soluble protein/μg DNA ([1]; 1 μM, 4 days in culture, C2C12): 382 μg soluble protein/μg DNA
- soluble protein μg/well ([1]; 1 μM, 5 days in culture, C2C12): 1126 μg/well
- total protein μg/well ([1]; 1 μM, 5 days in culture, C2C12): 1236 μg/well
- μg soluble protein/μg DNA ([1]; 1 μM, 5 days in culture, C2C12): 539 μg soluble protein/μg DNA
- soluble protein μg/well ([1]; 1 μM, 6 days in culture, C2C12): 1146 μg/well
- total protein μg/well ([1]; 1 μM, 6 days in culture, C2C12): 1232.4 μg/well
- μg soluble protein/μg DNA ([1]; 1 μM, 6 days in culture, C2C12): 624 μg soluble protein/μg DNA
- soluble protein μg/well ([1]; 1 μM, 7 days in culture, C2C12): 1118 μg/well
- total protein μg/well ([1]; 1 μM, 7 days in culture, C2C12): 1193.2 μg/well
- μg soluble protein/μg DNA ([1]; 1 μM, 7 days in culture, C2C12): 644 μg soluble protein/μg DNA
- effect on protein formation at higher concentration ([1]; 1 μM, C2C12): plateaued
- expression of genes involved in protein synthesis in skin, liver, kidney and spleen [2]: up-regulated
